The values below are quoted from earlier work in patent US9393230B2, “Pharmaceutical composition on the basis of phyto-nutrients with increased bioavailability, having anti-tumor activity, and method for producing said composition (alternatives)” (Nordic Labs Limited, priority 2012, dated 2016).

Each structure is given as a SMILES string.

With `O=C(O[C@@H]1Cc2c(O)cc(O)cc2O[C@@H]1c1cc(O)c(O)c(O)c1)c1cc(O)c(O)c(O)c1` [epigallo-3-catechin, epigallocatechol-3-gallate], the solubility in water result was “water-soluble”.
